Assay results from US8389523B2, “Substituted quinoxaline and an agrochemical composition thereof” (Kumiai Chemical Industry Co., Ltd., priority 2007, dated 2013).

Key:
Assay type in all cases: in vivo
Set-up in all cases: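 grade 0 to 5 of growth suppression where 5 is 90% or more and 0 below 10%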
Amaranthus viridis L. [1] = test: Herbicidal effects in upland field soil treatment (Test Example 2); conditions: 1000 g active ingredient per hectare, 21st day after treatment, criteria of Table 138
Procedure, shortened: (§1)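 Soil-applied before emergence at 1000 g a.i./ha as water-diluted wettable powder; greenhouse-grown plants rated for herbicidal damage 21 days post-treatment.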

[2] = system: Abutilon theophrasti medicus; test: as above; conditions: 1000 g active ingredient per hectare, 21st day after treatment, criteria of Table 138
Procedure, shortened: as §1

[3] = system: Monochoria vaginalis (Burm. f.) Presl var. plantaginea (Roxb.) Solms-Laub.; test: Herbicidal effects in paddy field soil treatment (Test Example 1); conditions: paddy field soil treatment; 1000 g of the active ingredient per hectare; wettable powder added dropwise on water surface; 21st day after treatment
Procedure, shortened: (§2)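 Flooded-paddy soil treatment under greenhouse conditions: a diluted wettable powder at 1000 g a.i./ha went onto the water surface one day post-sowing, with 3 cm standing water, and weed control was graded on a scoring scale 21 days after treatment.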

[4] = system: Echinochloa oryzicola Vasing; test: as above; conditions: paddy field soil treatment; 1000 g of the active ingredient per hectare; wettable powder added dropwise on water surface; 21st day after treatment
Procedure, shortened: as §2

[5] = system: Scirpus juncoides Roxb. var. ohwianus. T. Koyama; test: as above; conditions: paddy field soil treatment; 1000 g of the active ingredient per hectare; wettable powder added dropwise on water surface; 21st day after treatment
Procedure, shortened: as §2

[6] = system: Echinochloa crus-galli (L.) P. Beauv. var. crus-galli; test: Herbicidal effects in upland field foliar treatment (Test Example 3); conditions: 1000 g of the active ingredient per hectare, 14th day after the treatment, wettable powder, criteria of Table 138
Procedure, shortened: (§3)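 Post-emergence foliar treatment: two-week-old seedlings from upland field soil received 1000 g a.i./ha (wettable powder, 1000 L water/ha), then returned to the greenhouse for scoring 14 days later.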

Amaranthus viridis L. [7] = test: as above; conditions: 1000 g of the active ingredient per hectare, 14th day after the treatment, wettable powder, criteria of Table 138
Procedure, shortened: as §3

[8] = system: Abutilon theophrasti medicus; test: as above; conditions: 1000 g of the active ingredient per hectare, 14th day after the treatment, wettable powder, criteria of Table 138
Procedure, shortened: as §3

Row | Compound | herbicidal effect (index) on Amaranthus viridis L. (Amaranthus viridis L. [1]) | herbicidal effect (index) on Abutilon theophrasti medicus [2] | Herbicidal effects index, Monochoria vaginalis (Burm. f.) Presl var. plantaginea (Roxb.) Solms-Laub. [3] | Herbicidal effects index, Echinochloa oryzicola Vasing [4] | Herbicidal effects index, Scirpus juncoides Roxb. var. ohwianus. T. Koyama [5] | herbicidal effects on Echinochloa crus-galli (L.) P. Beauv. var. crus-galli [6] | herbicidal effects on Amaranthus viridis L. (Amaranthus viridis L. [7]) | herbicidal effects on Abutilon theophrasti medicus [8]
1 | O=C1CCCC(O)=C1C(=O)c1nc2cc(C(F)(F)F)ccc2n(-c2ccccc2)c1=O [II-249] | 5 | 5 | 5 | 5 | 5 | 5 | 5 | 5
2 | COc1ccc2nc(C(=O)C3=C(O)CCCC3=O)c(=O)n(-c3ccccc3)c2c1 [II-252] | 5 | 5 | 5 | 5 | 5 | 5 | 5 | 5
3 | COc1ccc2nc(C(=O)C3=C(O)CCCC3=O)c(=O)n(-c3cc(F)c(OC)cc3F)c2c1 [II-254] | 5 | 4 | 5 | 5 | 5 | 5 | 5 | 4
4 | O=C1CCCC(O)=C1C(=O)c1nc2cc(F)c(F)cc2n(-c2ccccc2)c1=O [II-260] | 5 | 5 | 5 | 5 | 5 | 5 | 5 | 5
5 | O=C1CCCC(O)=C1C(=O)c1nc2cc(F)cc(F)c2n(-c2ccccc2)c1=O [II-261] | 5 | 4 | 5 | 5 | 5 | 5 | 5 | 5
6 | COc1ccc(-n2c(=O)c(C(=O)C3=C(O)CCCC3=O)nc3cc(F)c(OC)cc32)cc1 [II-263] | 5 | 4 | 5 | 5 | 5 | 5 | 5 | 4
7 | COc1ccc2nc(C(=O)C3=C(O)CCCC3=O)c(=O)n(-c3ccc(F)cc3)c2c1 [II-304] | 5 | 5 | 5 | 5 | 5 | 4 | 5 | 5
8 | COc1ccc2nc(C(=O)C3=C(O)CCCC3=O)c(=O)n(-c3ccc(OC(F)F)cc3)c2c1 [II-305] | 5 | 5 | 5 | 5 | 5 | 5 | 5 | 5
9 | Cn1c(=O)c(C(=O)C2=C(O)CCCC2=O)nc2cccnc21 [III-2] | 5 | 5 | 5 | 5 | 5 | 5 | 5 | 5
